# Measured values reported in ChEMBL document CHEMBL2176897, “Synthesis and biological evaluation (in vitro and in vivo) of cyclic arginine-glycine-aspartate (RGD) peptidomimetic-paclitaxel conjugates targeting integrin αVβ3” (J Med Chem, 2012).
# Activity calls are given as the source filed them. The rule behind the calls is not given here.
# Assays:
# [1] = biological target: Integrin alpha-V/beta-3 (Homo sapiens, UniProt P05106+P06756); experiment: Competitive inhibition of biotinylated vitronectin to integrin alphaVbeta3 receptor after 3 hrs by microplate reader analysis; type: protein-complex assay
# [2] = Selectivity ratio of IC50 for integrin alphaVbeta5 receptor to IC50 for integrin alphaVbeta3 receptor
# [3] = biological target: Integrin alpha-V/beta-5 (Homo sapiens, UniProt P06756+P18084); experiment: Competitive inhibition of biotinylated vitronectin to integrin alphaVbeta5 receptor after 3 hrs by microplate reader analysis; type: protein-complex assay
# [4] = test system: IGROV-1; experiment: Antitumor activity against cisplatin-resistant human IGROV1/Pt1 cells overexpressing integrin alphaVbeta3 receptors xenografted in athymic Swiss mouse assessed as absence of disease at 30 mg/kg, iv administered every 4 days for 4 times measured up to 10 days; type: functional, organism-based; set-up: dose 30 mg/kg
# [5] = test system: Mus musculus; experiment: Toxicity in athymic Swiss mouse xenografted with cisplatin-resistant human IGROV1/Pt1 cells overexpressing integrin alphaVbeta3 receptors assessed as body weight loss at 15 mg/kg, iv administered every 4 days for 4 times; type: organism-based, IGROV-1; set-up: dose 15 mg/kg, route intravenous; settings: in vivo, 96 h
# [6] = test system: IGROV-1; experiment: Antitumor activity against cisplatin-resistant human IGROV1/Pt1 cells overexpressing integrin alphaVbeta3 receptors xenografted in athymic Swiss mouse assessed as disappearance of tumor lasting at 15 mg/kg, iv administered every 4 days for 4 times measured up to 10 days; type: functional, organism-based; set-up: dose 15 mg/kg
# [7] = test system: IGROV-1; experiment: Cytotoxicity against human IGROV1 cells after 72 hrs by coulter counter analysis; type: functional, cell-based; settings: IGROV-1, 72 h
# [8] = Antitumor activity against cisplatin-resistant human IGROV1/Pt1 cells overexpressing integrin alphaVbeta3 receptors xenografted in athymic Swiss mouse assessed as tumor killing at 30 mg/kg, iv administered every 4 days for 4 times; type: functional, IGROV-1
# [9] = Antitumor activity against cisplatin-resistant human IGROV1/Pt1 cells overexpressing integrin alphaVbeta3 receptors xenografted in athymic Swiss mouse assessed as tumor volume inhibition at 30 mg/kg, iv administered every 4 days for 4 times measured after 10 days relative to control; type: functional; settings: IGROV-1
# [10] = test system: PANC-1; experiment: Cytotoxicity against human PANC1 cells after 72 hrs by coulter counter analysis; type: functional, cell-based; settings: PANC-1, 72 h
# [11] = test system: IGROV-1; experiment: Cytotoxicity against cisplatin-resistant human IGROV1/Pt1 cells after 72 hrs by coulter counter analysis; type: functional, cell-based; settings: IGROV-1, 72 h
# [12] = Half life in human plasma at 10 uM by HPLC analysis; type: ADME, cell-free
# [13] = test system: IGROV-1; experiment: Induction of abberant mitosis in cisplatin-resistant human IGROV1/Pt1 cells overexpressing integrin alphaVbeta3 receptors xenografted in athymic Swiss mouse at 30 mg/kg, iv measured 24 hrs post fourth treatment by hematoxylin and eosin staining; type: functional, organism-based; set-up: dose 30 mg/kg
# [14] = Antitumor activity against cisplatin-resistant human IGROV1/Pt1 cells overexpressing integrin alphaVbeta3 receptors xenografted in athymic Swiss mouse assessed as tumor volume inhibition at 15 mg/kg, iv administered every 4 days for 4 times measured after 10 days relative to control; type: functional; settings: IGROV-1
# [15] = test system: U2OS; experiment: Cytotoxicity against human U2OS cells after 72 hrs by coulter counter analysis; type: functional, cell-based
# [16] = test system: Mus musculus; experiment: Toxicity in athymic Swiss mouse xenografted with cisplatin-resistant human IGROV1/Pt1 cells overexpressing integrin alphaVbeta3 receptors assessed as body weight loss at 30 mg/kg, iv administered every 4 days for 4 times; type: organism-based, IGROV-1; set-up: dose 30 mg/kg, route intravenous; settings: in vivo, 96 h
# [17] = Solubility of the compound in 0.9% NaCl in H2O/Cremophor EL/ethanol 90:5:5 v/v at 1.28 mM measured for 1 week by HPLC analysis; type: physicochemical; settings: 168 h, 1280 µM
# [18] = test system: IGROV-1; experiment: Induction of abberant mitosis in cisplatin-resistant human IGROV1/Pt1 cells overexpressing integrin alphaVbeta3 receptors xenografted in athymic Swiss mouse at 30 mg/kg, iv measured 24 hrs post second treatment by hematoxylin and eosin staining; type: functional, organism-based; set-up: dose 30 mg/kg
# [19] = test system: SK-OV-3; experiment: Cytotoxicity against human SKOV3 cells after 72 hrs by coulter counter analysis; type: functional, cell-based; settings: SK-OV-3, 72 h
# [20] = Half life in mouse plasma at 10 uM by HPLC analysis; type: ADME, cell-free
# [21] = Solubility of the compound in 0.9% NaCl in H2O/Cremophor EL/ethanol 90:5:5 v/v at 1.92 mM after 2 days by HPLC analysis; type: physicochemical; settings: 48 h, 1920 µM
# [22] = Stability of the compound in 0.9% NaCl in H2O/Cremophor EL/ethanol 90:5:5 v/v at 1.28 mM measured for 1 week by HPLC analysis; type: physicochemical; settings: 168 h, 1280 µM
# [23] = test system: MIA PaCa-2; experiment: Cytotoxicity against human MIAPaCa2 cells after 72 hrs by coulter counter analysis; type: functional, cell-based; settings: MIA PaCa-2, 72 h
# [24] = Antitumor activity against cisplatin-resistant human IGROV1/Pt1 cells overexpressing integrin alphaVbeta3 receptors xenografted in athymic Swiss mouse assessed as tumor killing at 15 mg/kg, iv administered every 4 days for 4 times; type: functional, IGROV-1
# [25] = Cytostatic activity against human dermal fibroblasts assessed as growth inhibition at 64 to 1000 nM after 72 hrs by coulter counter analysis; settings: skin fibroblast, 1 µM
# [26] = Stability of the compound in 0.9% NaCl in H2O/Cremophor EL/ethanol 90:5:5 v/v at 1.92 mM after 2 days by HPLC analysis; type: physicochemical; settings: 48 h, 1920 µM
smiles,measurement,setting,value
N=C(N)NCCC[C@@H]1NC(=O)[C@@H]2CC[C@H]3CCC[C@@H](NC(=O)[C@H](CC(=O)O)NC(=O)CNC1=O)C(=O)N32,IC50,[1],1 nM
same,Ratio IC50,[2],20
same,IC50,[3],1.4 nM
N=C(N)NCCC[C@@H]1NC(=O)C[C@@H]2NC(=O)[C@@H](CNC(=O)[C@H](CC(=O)O)NC(=O)CNC1=O)N(Cc1ccccc1)C2=O,IC50,[1],3.2 nM
same,Ratio IC50,[2],20
same,IC50,[3],114 nM
N=C(N)NCCC[C@@H]1NC(=O)C[C@H]2NC(=O)[C@H](CNC(=O)[C@H](CC(=O)O)NC(=O)CNC1=O)N(Cc1ccccc1)C2=O,Ratio IC50,[2],20
same,IC50,[3],149 nM
N=C(N)NCCC[C@@H]1NC(=O)C[C@H]2C(=O)N(Cc3ccccc3)[C@H](CNC(=O)[C@H](CC(=O)O)NC(=O)CNC1=O)C(=O)N2Cc1ccccc1,IC50,[1],0.2 nM
CC(=O)O[C@H]1C(=O)[C@@]2(C)[C@H]([C@H](OC(=O)c3ccccc3)[C@]3(O)C[C@H](OC(=O)[C@H](OC(=O)CCC(=O)NCc4ccc(CN5C(=O)[C@H]6CC(=O)N[C@@H](CCCNC(=N)N)C(=O)NCC(=O)N[C@@H](CC(=O)O)C(=O)NC[C@H]5C(=O)N6)cc4)[C@@H](NC(=O)c4ccccc4)c4ccccc4)C(C)=C1C3(C)C)[C@]1(OC(C)=O)CO[C@@H]1C[C@@H]2O,Activity,[4],Active
same,Activity,[5],0%
same,Activity,[6],Active
same,IC50,[1],5.2 nM
same,IC50,[7],61.3 nM
same,LCK,[8],1.4
same,inhibition in vivo at 30 mg/kg,[9],85%
same,IC50,[10],2.4 nM
same,IC50,[11],4.9 nM
same,half-life at 10 µM,[12],2.38 h
same,Activity,[13],Active
same,inhibition in vivo at 15 mg/kg,[14],64%
same,IC50,[15],12.8 nM
same,Activity,[16],3%
same,solubility,[17],soluble
same,Activity,[18],Active
same,Ratio IC50,[2],20
same,IC50,[19],1.2 nM
same,half-life at 10 µM,[20],2.75 h
same,solubility,[21],Insoluble
same,Stability,[22],Stable
same,IC50,[23],2.3 nM
same,LCK,[24],0.3
same,growth inhibition (GI),[25],Non-toxic
same,IC50,[3],219 nM
same,Stability,[26],Unstable
N=C(N)NCCC[C@@H]1NC(=O)C[C@@H]2C(=O)N(Cc3ccccc3)[C@@H](CNC(=O)[C@H](CC(=O)O)NC(=O)CNC1=O)C(=O)N2Cc1ccccc1 (stereo in doubt; 7b),IC50,[1],0.2 nM
NC(N)=NCCC[C@@H]1NC(=O)C[C@@H]2NC(=O)[C@H](CNC(=O)[C@H](CC(=O)O)NC(=O)CNC1=O)N(Cc1ccccc1)C2=O,IC50,[1],3.9 nM
N=C(N)NCCC[C@@H]1NC(=O)C[C@H]2C(=O)N[C@H](CNC(=O)[C@H](CC(=O)O)NC(=O)CNC1=O)C(=O)N2Cc1ccc(CNC(=O)CCC(=O)O)cc1,Ratio IC50,[2],20
N=C(N)NCCC[C@@H]1NC(=O)C[C@@H]2C(=O)N[C@@H](CNC(=O)[C@H](CC(=O)O)NC(=O)CNC1=O)C(=O)N2Cc1ccccc1,IC50,[1],2.1 nM
same,Ratio IC50,[2],20
same,IC50,[3],79 nM
